The text below walks through data of patent publication US10927221B2, “Dendrimeric metallacrowns” (THE REGENTS OF THE UNIVERSITY OF MICHIGAN, priority 2018, dated 2021).

One series in a line: Luminescence lifetimes. Type of series: physicochemical. The source says: (§1) Quantitative parameters, i.e. absolute quantum yields under excitation at 320 nm to 340 nm and luminescence lifetimes, have been determined for the Ga8Yb2(Shi)8(MIP)4 metallacrown and Ga8Ln2 G:−0.5 polyamidoamine MC-cored dendrimers (Ln=Yb, Tb, Sm) (Table 1).
(§2) In Table 1, luminescence lifetimes (λex=355 nm) and quantum yields (λex=340 nm for samples in the solid state and λex=320 for solutions) of the Ga8Yb2(Shi)8(MIP)4 dimeric metallacrown, Ga8Ln2 G:−0.5 polyamidoamine MC-cored dendrimers (Ln=Yb, Tb, Sm) (i.e., Ga8Ln2(Shi)8(MIP)4(G:−0.5 PAMAM)4) and Ga8Yb2 G:0.5 polyamidoamine MC-cored dendrimers at room temperature (2σ values are given between parentheses) are presented. For bi-exponetial luminescence lifetimes results, values after the colon indicate the fraction contribution of the individual lifetimes to the experimental luminescence decay.
(§3) Quantitative parameters, i.e. absolute quantum yields under excitation at 350 nm (for samples in the solid state) or 325 nm (for samples in solution) and luminescence lifetimes (under excitation at 355 nm), have been determined for each of the Ga8Y2(shi)8(mip)4 G:0 polyamidoamine MC-cored dendrimer, the Ga8Y2(shi)8(mip)4 G:0 AA-capped polyamidoamine MC-cored dendrimer, and the Ga8Y2(shi)8(mip)4 G:0.5 polyamidoamine MC-cored dendrimer at room temperature. In Table 2, the 2σ values are given between parentheses. For bi-exponetial luminescence lifetimes results, values after the colon indicate the fraction contribution of the individual lifetimes to the experimental luminescence decay.

The nature of series [1]: Absolute quantum yields. It counts as physicochemical.
From the text: as §1, §2, §3

The next series has as its system HeLa cells. Put plainly: Epifluorescence imaging with HeLa cells. Type of series: cell-based. To be noted: 3 hours, λex 377 nm band pass 50 nm. On the procedure: FIG. 21 depicts epifluorescence microscopy images (reproduced in black and white) obtained on HeLa cells, (Top) after incubation with a 30 μM solution of Ga8Tb2(shi)8(MIP)4 G:−0.5 polyamidoamine MC-cored dendrimer for 3 hours (λex: 377 nm, band pass 50 nm; λem: 536 nm, band pass 40 nm, 1 s of exposure) and (Bottom) untreated (control) cells. A: brightfield, B: visible emission, and C: merged image (Objective 63×);
FIG. 22 depicts epifluorescence microscopy images (reproduced in black and white) obtained on HeLa cells, (Top) after incubation with a 100 μM solution of the Ga8Yb2(shi)8(MIP)4 G:−0.5 polyamidoamine MC-cored dendrimer for 3 hours (λex: 377 nm, band pass 50 nm; λem: long pass 805 nm, 40 s of exposure), and (Bottom) untreated (control) cells. A: brightfield, B: visible emission, and C: merged image (Objective 63×);
To test if synthesized MC-cored dendrimers could be used under biological conditions and maintain the luminescence signal, HeLa cells were incubated with the Tb(III) and Yb(III) G:−0.5 polyamidoamine MC-cored dendrimers (Ga8Tb2 G:−0.5 polyamidoamine MC-cored dendrimers and Ga8Yb2 G:−0.5 polyamidoamine MC-cored dendrimers). The metallacrown complexes coated the surfaces of the cells. For a control, HeLa cells were not incubated and were imaged in a similar manner. […]

Series [2] can be described thus: Absolute quantum yields. To be noted: aqueous solution. Type of series: physicochemical.
Series [3] in a line: Solution state (UV-Vis) absorbance. Particulars: approximately 2 μM to 3 μM methanol solutions; room temperature. Type of series: physicochemical. On the procedure: The solution state (UV-Vis) absorbance of the Sm-shi8 and the Sm-e8, Sm-m4, Smbt8 and Sm-te4 analogs was measured in approximately 2 μM to 3 μM methanol solutions at room temperature. The absorbance spectrum for each analog shown in FIG. 29 has a π-π* transition band with λmax of approximately 315 nm (31,750 cm^−1) or 335 nm (29,850 cm^−1). This π-π* transition was red-shifted by close to 25 nm from Sm-shi8 in the case of Sm-e8 and Sm-bt8.

The mark [4] stands for this setting: 200 μM H2O/DMSO (4%), λex=355 nm, room temperature (Table 1).
The mark [5] stands for this setting: Solid, λex=355 nm, room temperature, 2σ in parentheses (Table 1).
Setting [6] is: 200 μM H2O/DMSO (4%), λex=320 nm, room temperature (Table 1).
Where [7] appears, read: Solid, λex=340 nm, room temperature (Table 1).
Where [8] appears, read: 200 μM H2O/DMSO (4%), λex=355 nm, room temperature (Table 1), longer lifetime component.
Setting [9] is: 200 μM H2O/DMSO (4%), λex=355 nm, room temperature (Table 1), shorter lifetime component.
[10] abbreviates: H2O/DMSO (96/4), 1 mg/mL, excitation at 355 nm, room temperature (Table 2).
Where [11] appears, read: Solid, excitation at 355 nm, room temperature (Table 2).
Where [12] appears, read: H2O/DMSO (96/4), 1 mg/mL, excitation at 325 nm, room temperature (Table 2).
The mark [13] stands for this setting: Solid, excitation at 350 nm, room temperature (Table 2).

On to “Ga8Sm2(shi)8(MIP)4G:−0.5 PAMAM metallacrown (MC)-cored dendrimer [Ga8Sm2 Gen: −0.5]”, for which the results for the Lifetime in the series “Luminescence lifetimes” (setting [4]) and in “Luminescence lifetimes” (setting [5]) were 96.2(9) μs and 112(1) μs, respectively. The Quantum yield is 1.1(1) % in the series “Absolute quantum yields [1]” (setting [6]) and 2.31(2) % in “Absolute quantum yields [1]” (setting [7]).

Turning to “Ga8Tb2(shi)8(MIP)4 G:−0.5 polyamidoamine MC-cored dendrimer [Ga8Tb2 Gen: −0.5]”, the “fraction contribution of the individual lifetime to the experimental luminescence decay” value in “Luminescence lifetimes” (setting [8]) is listed as 89.7(8) %; in the series “Luminescence lifetimes” (setting [9]), 10.3(8) %. In addition, the Quantum yield in “Absolute quantum yields [1]” (setting [6]) is reported as 6.1(3) %; in “Absolute quantum yields [1]” (setting [7]), 11.9(3) %. The “luminescence signal on epifluorescence microscope, visible range” value in the series on HeLa cells (30 μM, 536 nm emission, 40 nm filter, 1 s exposure) is “good quality signals were observed in the visible range”.

Take Ga8Yb2(Shi)8(MIP)4: the “fraction contribution of the individual lifetime to the experimental luminescence decay” value in “Luminescence lifetimes” (setting [8]) is given as 97.5(3) %; in “Luminescence lifetimes” (setting [9]), 2.5(3) %. Further, the figures for the Quantum yield in “Absolute quantum yields [1]” (setting [6]) and in the series “Absolute quantum yields [1]” (setting [7]) were 9.01(7) · 10^−2% and 0.126(3) %, respectively.

With “Ga8Yb2(shi)8(MIP)4 G:0 polyamidoamine MC-cored dendrimer [Ga8Yb2 G:0]”, the Lifetime in the series “Luminescence lifetimes” (setting [10]) is 9.93(8) μs; in “Luminescence lifetimes” (setting [11]) it was 36.3(1) μs. In addition, the Quantum yield in the series “Absolute quantum yields [1]” (setting [12]) is listed as 0.53(1) %; in “Absolute quantum yields [1]” (setting [13]), 2.40(2) %.

Take “Ga8Yb2(shi)8(MIP)4 G:0.5 polyamidoamine MC-cored dendrimer [Ga8Yb2 Gen: 0.5]”: the Lifetime is on record as 11.1(1) μs in “Luminescence lifetimes” (setting [10]), 46.3(1) μs in the series “Luminescence lifetimes” (setting [11]) and 28.2(3) μs in “Luminescence lifetimes” (setting [5]). Moreover, the Quantum yield in the series “Absolute quantum yields [1]” (setting [12]) is given as 0.63(1) %; in “Absolute quantum yields [1]” (setting [13]), 2.83(9) %; in the series “Absolute quantum yields [1]” (setting [7]), 1.82(1) %.

On to “Ga8Yb2(shi)8(MIP)4 G:−0.5 polyamidoamine MC-cored dendrimer [Ga8Yb2 Gen: −0.5]”, for which the Lifetime is 13.(1) μs in the series “Luminescence lifetimes” (setting [4]) and 35.3(6) μs in the series “Luminescence lifetimes” (setting [5]). Also, the Quantum yield is given as 0.868(9) % in “Absolute quantum yields [1]” (setting [6]); 0.868% in “Absolute quantum yields [1]” (200 μM H2O/DMSO (4%), λex=320 nm, room temperature (Table 1), listed as Ga8Yb2 G:−0.5 polyamidoamine MC-cored dendrimer); 3.24(9) % in “Absolute quantum yields [1]” (setting [7]). Further, the “luminescence signal on epifluorescence microscope, NIR range” value in the series with HeLa cells (100 μM, >805 nm emission, 40 s exposure) was “good quality signals were observed in the NIR range”. Also, the “improvement of quantum yield compared to YnZn16 MCs assembled with pyrazinehydroxamic acid” value in the series “Absolute quantum yields [2]” is given as above 77 times.

Turning to Sm2Ga8(eshi)8(ip)4 [Sm-e8], the “red-shift of π-π* transition band from Sm-shi8” value in series [3] was around 25 nm.

Sm2Ga8(shi)8(miph)4 [Sm-m4]: the “red-shift of π-π* transition band from Sm-shi8” value in series [3] was “no notable redshift”.
